One series deals with CNE2. The series can be described thus: MTT cytotoxicity assay, CNE2. The format is cell-based. The conditions noted are these: mean ± SD. Here is the method:
(§1) Prior to determining the combined inhibitory effects against NPC CDDP-resistance cells, the cytotoxicity effects of these 8 derivatives were evaluated against three NPC cell lines (CNE2, HONE1, and HK-1) and CDDP resistance cell line (CNE2/CDDP) by using MTT (3-(4,5-dimethyl-2-thiazolyl)-2,5-diphenyl-2-H-tetrazolium bromide) assays. […] Moreover, a liver normal cell LO2 was involved to evaluate the selectivity of these 8 compounds by using MTT assays.
(§2) Nasopharyngeal carcinoma cells (CNE2, HONE1, and CNE2/CDDP) were purchased from Shanghai Aulu Biological Technologh Co., Ltd. (Shanghai, China). HK-1 cell was purchased from Shanghai Shunran Biological Technologh Co., Ltd. CNE2, HONE1, and HK-1 were cultured in DMEM medium supplemented with 10% fetal bovine serum, 1% penicillin-streptomycin. CDDP-resistant NPC cell CNE2/CDDP was cultured in DMEM medium supplemented with CDDP to sustain its drug resistance. Cell viability was detected using the MTT assay. All the 8 derivatives were resolved with DMSO to make a storage solution at 1 M, and CDDP was resolved with phosphate buffer saline (PBS) to make a storage solution at 100 mM. The maximum concentrations of these 8 derivatives and CDDP used in MTT assays were set as 1 mM and 100 µM diluted with DMEM medium, respectively. Medium with 0.1% DMSO was set as control. To begin, an initial MTT assay was conducted to evaluate the cytotoxicity of 3a~3h with a dose range of 50, 100, 200, 400, and 800 µM. Then, a more precise dose range was set to calculate the IC50 of each compound (For 3a~3e: 50, 100, 200, 400, 600, and 800 µM; for 3f~3h: 12.5, 25, 50, 100, 200, and 400 µM). Then, 5000 cells were seeded in a 96-well plate for each well and treated with respective compounds at different concentrations for 72 h following additional treatment with MTT for 2~3 h. Then, MTT was removed and 150 µL DMSO was added into each well and the absorption values were measured at 490 nm using a SpectraMAX M5plate reader (Silicon Valley, CA, USA).
(Tetrazolium assays rely on reduction of a dye to a coloured formazan, in cell work by metabolically active cells.)

The next series concerns LO2. Nature of the series: MTT cytotoxicity assay, LO2 normal liver cell. In kind it is cell-based. The conditions noted are these: mean ± SD. Here is the method:
as §1, §2

A further series relates to CNE2/CDDP. Nature of the series: MTT cytotoxicity assay, CNE2/CDDP. The format is cell-based. The conditions noted are these: cisplatin resistant cell line, mean ± SD. As to the method: as §1, §2
The test system of the next series is HK-1. The series can be described thus: MTT cytotoxicity assay, HK-1. The format is cell-based. Conditions: mean ± SD. As to the method: as §1, §2
The next series concerns HONE1. Nature of the series: MTT cytotoxicity assay, HONE1. The conditions noted are these: mean ± SD. The format is cell-based. Here is the method: as §1, §2
Series [1] concerns NPC cell lines (CNE2, HONE1, and HK-1) and CDDP resistance cell line (CNE2/CDDP). Nature of the series: MTT cytotoxicity, summary over NPC cell lines and CDDP resistance cell line. In kind it is cell-based. The conditions noted are these: range over CNE2, HONE1, HK-1 and CNE2/CDDP, read-out: IC50, anti-proliferative effects. As to the method:
as §1
Nasopharyngeal carcinoma cells (CNE2, HONE1, and CNE2/CDDP) were purchased from Shanghai Aulu Biological Technologh Co., Ltd. (Shanghai, China). HK-1 cell was purchased from Shanghai Shunran Biological Technologh Co., Ltd. CNE2, HONE1, and HK-1 were cultured in DMEM medium supplemented with 10% fetal bovine serum, 1% penicillin-streptomycin. CDDP-resistant NPC cell CNE2/CDDP was cultured in DMEM medium supplemented with CDDP to sustain its drug resistance. Cell viability was detected using the MTT assay. All the 8 derivatives were resolved with DMSO to make a storage solution at 1 M, and CDDP was resolved with phosphate buffer saline (PBS) to make a storage solution at 100 mM. […] Then, MTT was removed and 150 µL DMSO was added into each well and the absorption values were measured at 490 nm using a SpectraMAX M5plate reader (Silicon Valley, CA, USA).

Series [2] has as its system leukemia, breast, and bladder cancer cells. Conditions: cited from earlier work.
A further series relates to CNE2/CDDP cells. The series can be described thus: Apoptosis assay (Annexin V-FITC/PI, FACS). The format is cell-based. Conditions: CDDP 4 µg/mL or 3f 40 µM alone, 24 h, three independent experiments, mean ± SD. As to the method: Subsequently, to further verify whether the synergistic effects of compound 3f with CDDP involved cell death, an apoptosis assay was conducted. CNE2/CDDP cells were co-treated with CDDP and compound 3f, or CDDP and 3f alone for 24 h. Then, cells were harvested for staining by using an apoptosis kit, following FACS detection (Figure 3a). Then, the data from three independent experiments were analyzed and the results were shown in the form of histogram (Figure 3b).
CNE2/CDDP cells (3 × 10^5) were seeded into a 6-well plate for each well. Twenty-four hours later, medium was removed and cells were treated with different compounds for […]. Then, cells were harvested, washed with cold PBS, and stained with Annexin V-FITC and PI for 15 min in dark. Finally, samples were analyzed by flow cytometer.
Figure 3 Compound 3f (40 µM) increased apoptosis rate of CDDP (4 µg/mL) in CNE2/CDDP cells. (a), representative apoptosis detection by FACS. (b), three independent experiments of apoptosis assays were analyzed and p-value was calculated. Data are represented as mean ± SD. Bar means SD value * p < 0.05, compared with CDDP; # p < 0.05, compared with 3f.

For the compound `S=C1/C(=C/c2cccs2)CC[C@@H]2[C@H]3CCCN4CCC[C@@H](CN12)[C@@H]34` [3b], the 50% inhibitory concentration (IC50) with CNE2 (Homo sapiens, CNE-2, 72 h) was 158 ± 11.3 µM; with LO2 (Homo sapiens, L02, 72 h), 156 ± 11.7 µM; with CNE2/CDDP (Homo sapiens, CNE-2, 72 h), 583 ± 15.3 µM; in the series with HK-1 (HK-1, 72 h), 208 ± 9.4 µM; with HONE1 (Homo sapiens, HONE1, 72 h), 125 ± 6.3 µM.

In turn, `Cc1ccc(/C=C2\CC[C@@H]3[C@H]4CCCN5CCC[C@@H](CN3C2=S)[C@@H]45)s1` [3d, 14-((5-methylthiophen-2-yl)methylene)thiomatrine] registered a melting point of 186.2 to 187.4 °C. This compound came in with an IC50 in the series on CNE2 (Homo sapiens, CNE-2, 72 h) of 92.4 ± 6.5 µM. In the series with LO2 (Homo sapiens, L02, 72 h), this compound registered an IC50 of 138 ± 9.6 µM. The same compound returned an IC50 in the series with CNE2/CDDP (Homo sapiens, CNE-2, 72 h) of 294 ± 20.1 µM. In the series on HK-1 (HK-1, 72 h), this compound showed an IC50 of 138 ± 9.4 µM. The same compound showed an IC50 in the series on HONE1 (Homo sapiens, HONE1, 72 h) of 121 ± 7.7 µM.

`S=C1/C(=C/c2cc(Br)cs2)CC[C@@H]2[C@H]3CCCN4CCC[C@@H](CN12)[C@@H]34` [3g, 14-((4-bromothiophen-2-yl)methylene)thiomatrine] yielded a melting point of 245.7 to 246.3 °C. The compound further yielded a concentration for half-maximal inhibition (IC50) with CNE2 (Homo sapiens, CNE-2, 72 h) of 58.3 ± 2.9 µM. Besides, inhibition with LO2 (Homo sapiens, L02, 72 h) was half-maximal at 68 ± 5.1 µM (IC50). The same compound showed an IC50 in the series with CNE2/CDDP (Homo sapiens, CNE-2, 72 h) of 206 ± 11.7 µM. This compound also showed an IC50 in the series with HK-1 (HK-1, 72 h) of 90.7 ± 6.6 µM. For the same compound, the half-inhibitory concentration (IC50) in the series on HONE1 (Homo sapiens, HONE1, 72 h) worked out at 71.5 ± 4.2 µM.

Consider `O=C1CCC[C@@H]2[C@H]3CCCN4CCC[C@@H](CN12)[C@@H]34` [Matrine], for which the IC50 in series [1] is greater than 1000 µM; in the series with CNE2 (Homo sapiens, CNE-2, 72 h), greater than 1000 µM; in the series on LO2 (Homo sapiens, L02, 72 h), greater than 1000 µM; in the series on CNE2/CDDP (Homo sapiens, CNE-2, 72 h), greater than 1000 µM; in the series on HK-1 (HK-1, 72 h) it was greater than 1000 µM; in the series on HONE1 (Homo sapiens, HONE1, 72 h), greater than 1000 µM. In addition, the “dosage reversing drug resistance in vitro” value in series [2] is “more than 1 mM”.

With `S=C1/C(=C/c2ccsc2)CC[C@@H]2[C@H]3CCCN4CCC[C@@H](CN12)[C@@H]34` [3c, 14-(thiophen-3-ylmethylene)thiomatrine], the melting point was 166.8 to 167.5 °C. For the same compound, in the series on CNE2 (Homo sapiens, CNE-2, 72 h), the 50% inhibitory concentration (IC50) came to 144 ± 10.3 µM. Also, the midpoint of inhibition in the series on LO2 (Homo sapiens, L02, 72 h), the IC50, lay at 285 ± 20.7 µM. Moreover, in the series with CNE2/CDDP (Homo sapiens, CNE-2, 72 h), the IC50 came to 676 ± 23.8 µM. For the same compound, in the series on HK-1 (HK-1, 72 h), it took 191 ± 11.3 µM to reach half-maximal inhibition (IC50).

Consider `[NH2][Pt]([NH2])([Cl])[Cl]` [CDDP, Cisplatin, reference compound], for which the IC50 in the series with CNE2 (72 h) is 3.77 ± 0.26 µM; in the series with LO2 (72 h), 6.33 ± 0.56 µM; in the series with CNE2/CDDP (72 h), 29.5 ± 3.12 µM; in the series on HK-1 (72 h) it was 6.73 ± 0.42 µM; in the series with HONE1 (72 h), 5.23 ± 0.37 µM. In the series with CNE2/CDDP cells, the “cell apoptosis, treatment alone” value was determined as 7.58 ± 0.82.

As to `S=C1/C(=C/c2csc3ccccc23)CC[C@@H]2[C@H]3CCCN4CCC[C@@H](CN12)[C@@H]34` [3a], the 50% inhibitory concentration (IC50) with CNE2 (Homo sapiens, CNE-2, 72 h) is 113 ± 7.2 µM; in the series with LO2 (Homo sapiens, L02, 72 h), 212 ± 15.3 µM; in the series on CNE2/CDDP (Homo sapiens, CNE-2, 72 h), 375 ± 18.1 µM; in the series on HK-1 (HK-1, 72 h) it was 179 ± 12.1 µM; with HONE1 (Homo sapiens, HONE1, 72 h), 152 ± 8.4 µM.

With `S=C1/C(=C/c2ccc(Br)s2)CC[C@@H]2[C@H]3CCCN4CCC[C@@H](CN12)[C@@H]34` [3h, 14-((5-bromothiophen-2-yl)methylene)thiomatrine], the melting point lay within 239.9 to 240.6 °C. Further, the IC50 in the series with CNE2 (Homo sapiens, CNE-2, 72 h) worked out at 76.2 ± 4.5 µM. In the series on LO2 (Homo sapiens, L02, 72 h), this compound displayed a concentration for half-maximal inhibition (IC50) of 92 ± 8.6 µM. This compound displayed an IC50 in the series with CNE2/CDDP (Homo sapiens, CNE-2, 72 h) of 178 ± 15.8 µM. Moreover, half-maximal inhibition with HK-1 (HK-1, 72 h) (IC50) required 103 ± 7.8 µM. This compound also came in with an IC50 with HONE1 (Homo sapiens, HONE1, 72 h) of 89.7 ± 6.2 µM.

`Cc1ccsc1/C=C1\CC[C@@H]2[C@H]3CCCN4CCC[C@@H](CN2C1=S)[C@@H]34` [3e, 14-((3-methylthiophen-2-yl)methylene)thiomatrine] showed a melting point of 193.6 to 195 °C. In the series with CNE2 (Homo sapiens, CNE-2, 72 h), this compound displayed a 50% inhibitory concentration (IC50) of 148 ± 5.6 µM. Besides, the IC50 in the series on LO2 (Homo sapiens, L02, 72 h) came out at 243 ± 12.7 µM. In addition, in the series with CNE2/CDDP (Homo sapiens, CNE-2, 72 h), the midpoint of inhibition, the IC50, lay at 452 ± 26.8 µM. In the series with HK-1 (HK-1, 72 h), this compound yielded an IC50 of 180 ± 7.3 µM. In the series on HONE1 (Homo sapiens, HONE1, 72 h), this compound came in with a half-maximal inhibitory concentration (IC50) of 185 ± 12.4 µM.

As usually defined, the IC50 is the concentration needed to halve the response being measured. As usually defined, the melting point is the temperature of the solid-liquid transition.

The values are drawn from article PMC7830115, “Design, Synthesis, Molecular Docking, and Tumor Resistance Reversal Activity Evaluation of Matrine Derivative with Thiophene Structure” (Molecules, 2021).
